Data reported in BindingDB's records for doi:10.1021/jm00147a030 (1985).

molecular target: Angiotensin-converting enzyme (Cavia porcellus); assay: In vitro inhibitory activity against Angiotensin I converting enzyme from unpurified guinea pig serum

First: CCOC(=O)C(CCc1ccccc1)[S+]([O-])C(C)C(=O)N1C2CCCCC2C[C@H]1C(=O)O (stereo not given in full)
Second: CCOC(=O)C(CCc1ccccc1)OC(C)C(=O)N1C(C(=O)O)CC2CCCCC21 (stereo not given)
The IC50 of the first is 9.2-fold higher: 220 nM for the first, 24 nM for the second. The second is the more potent here.

Going from CCOC(=O)C(CCc1ccccc1)SC(C)C(=O)N1CCCC1C(=O)O (stereo not given) to CC(SC(CCc1ccccc1)C(=O)O)C(=O)N1CCC[C@H]1C(=O)O (stereo not given in full), the IC50 falls from 2900 nM to 580 nM (5-fold).

Compared with CC(SC(CCc1ccccc1)C(=O)O)C(=O)N1C2CCCCC2C[C@H]1C(=O)O (stereo not given in full), CCOC(=O)C(CCc1ccccc1)SC(C)C(=O)N1CSC[C@@H]1C(=O)O (stereo not given in full) is 34-fold higher in IC50: 140 nM for the first, 4800 nM for the second.

Compared with CCOC(=O)C(CCc1ccccc1)SC(C)C(=O)N1Cc2ccccc2C[C@H]1C(=O)O (stereo not given in full), CCOC(=O)C(CCc1ccccc1)OC(C)C(=O)N1Cc2ccccc2CC1C(=O)O (stereo not given) is 33-fold lower in IC50: 460 nM for the first, 14 nM for the second.

Compared with CCOC(=O)C(CCc1ccccc1)OC(C)C(=O)N1CCCC1C(=O)O (stereo not given), CC(OC(CCc1ccccc1)C(=O)O)C(=O)N1Cc2ccccc2CC1C(=O)O (stereo not given) is 2.6-fold lower in IC50: 220 nM for the first, 86 nM for the second.
